We go through 14 compounds from patent publication US4385057A, “Diphenylbutyl-piperazinecarboxamides in pharmaceutical compositions and methods” (priority 1978, dated 1983).

Test [1] deals with gastric ulcers in rats. In words: Stress-induced ulcers (restraint and cold). The conditions noted are these: 15 min before cold and restraint. The class given is in vivo, rat (female Sprague Dawley). An excerpt: A number of methods have been described for studies of somatic expression of adverse stimulation in experimental animals. One method is based upon the development of gastric lesions in rat subjected to some form of environmental stress. The most frequently used mode of stressing the rats is by simple physical restraint. In the experiments to be described rats were immobilized in rigid plastic devices. As repeatedly shown the restraint and the exposure to cold, act synergistically to produce gastric ulcers. The method for production of stress ulcus in rats has been described earlier (R. J. Levine In: C. J. Pfeiffer ed., Peptic Ulcer, Scand. Univ. Books, Copenhagen 1971). The animals in the experiments, female Sprague Dawley rats 180-230 g, have been kept immobilized for three hours at +5° C. For 24 hours prior to restraint the animals furthermore were not allowed to ingest anything but tap water. In all experiments the rats were divided in three groups. In the first group all animals were pre-treated only with saline 15 min. before the exposure to the stressors. […] The third group consisted always of the compound to be tested in this model. The number and severity of gastric erosions in the opened stomach of controls and drug-pre-treated animals were scored. The average number of gastric ulcers in the control rats were put equal to a hundred percent. In table VI the potency of some compounds to protect against gastric ulcers in the described experiments is reported. All pre-treatments were always made 15 min. before the exposure to cold and restraint.

Test [2] concerns pigs. In words: Social parameters and aggression of pigs in stress situations. The test is classed as in vivo, pig. The conditions noted are these: in words; for stabilization of social parameters: aggression, hierarchy, interaction, cleanliness, feeding behaviour; for effect on aggression: stress situations. An excerpt:
Among domestic animals pigs are exposed to a wide variety of stresses, e.g. after weaning, at transports and at regrouping of animals. By studying social parameters such as aggression, hierarchy, interaction, cleanliness in their living space and feeding behaviour in different stress situations the new compounds of formula I have been compared with established drugs, e.g. azaperone and acepromazine, now used in handling pigs.

Test [3] relates to thymus. In words: Swim-test (stress-induced thymolymphatic involution). The class given is in vivo, mouse (NMRI female). The conditions noted are these: for protecting capacity against the induced stress: in words; for Relative weight of thymus, ×100: once 10 min before first swim-test, saline stressed 36, unstressed 66, Wilcoxon's ranking test. An excerpt:
If an animal is in a stage of exhaustion the rise in glucocorticoids induced by the stress causes thymolymphatic involution and elicites a characteristic change in blood count. […] In the experiments NMRI female mice were used with well-documented thymic glands. In the experiments the mice were divided in four groups. In the first group the mice were allowed to stay in their home cages all the time. In the second group saline-treated mice were repeatedly forced to swim in water at a temperature of +5° C. for 1 min. once every hour, 6 times per day for four days. In the third group the mice were pre-treated once with the test compound 10 min. before the first swim-test, otherwise the mice were manipulated in the same way as in the second group. In the fourth group the mice were adrenalectomized three days before the start of the swim tests. Otherwise also this group was manipulated as the second group. All mice were killed on the 5th day of the experiment and the weight of the thymic gland registered.

The subject of test [4] is isolation-induced aggressive behaviour of male mice. Briefly: Isolation-induced aggressive behaviour. The test is classed as in vivo, mouse (male NMR mice). The conditions noted are these: Mus musculus, sc, read-out: ED50, mg/kg, sc (dose inhibiting aggressive behaviour among 50 percent of the pairs). An excerpt: Male mice subjected to prolonged isolation develop aggressive behavior against each other when paired. […] The clinical correlation of this test indicates tranquillizing and anxiolytic activities as well as antiaggressive properties as such (R. L. Duncan et al., J. Med. Chem. 13, 1 (1970)).
This type of aggression is interesting because it is known that this kind of emotional behaviour might be located in limbic structures in the brain (P. D. Mac Lean, Psychosom. Med. 11, 338 (1949)).
Every week 24 male NMR mice, weighing 20-22 g, were isolated in Makrolon cages for three weeks with diet and water ad libitum. A piece of cardboard was placed between the cages to prevent visual contact.
To test aggressiveness the mice were paired in a neutral area, a beaker (14 cm high and diameter 14 cm). A pair is considered aggressive if both the animals show clear signs of fighting within 5 min. This fighting is characterized by biting and vocalization. As soon as fighting is seen, the mice are separated and brought to their home cage. […] Animals showing no aggression are discarded. […] The test substance is administered s.c. (0.2-0.4 ml/20 g). The mice are paired 1/2 h, 1 h, 2 h, 4 h, 6 h and 24 h after the injection for trials of 5 min. duration.
The ED50 -value (mg/kg) reported is the dose inhibiting aggressive behaviour among 50 percent of the pairs 1.0 hour after drug administration.

Test [5] has as its system acetic acid induced writhing. In words: Writhing test (analgetic properties). The class given is in vivo, mouse (NMRI female). The conditions noted are these: Mus musculus, sc, 20 min before acetic acid i.p.; read-out: ED50, mg/kg, s.c. (dose blocking the writhing behaviour in 50% of the animals). The procedure: The writhing test is a frequently used test of analgetic properties (L. B. Witkin et al., J. Pharmacol. Exp. Ther. 133, 400 (1961)). If acetic acid (0.5%, 15 ml/kg) is injected intraperitoneally in mice (NMRI) they will without exception develop a writhing behaviour characterized by stretching their hind legs. The drugs to be tested were administered subcutaneously to 6 female mice at each dose 20 min. before the injection of the acetic acid. After 10 min. the behaviour of the mice was studied in 5 min. The ED50 value is the dose blocking the writhing behaviour in 50% of the animals during the 5 min. study period. [drawing 13]

Test [6] has as its system exploratory activity / climbing of mice. In words: Climbing (inability to ascend net-ladder). The test is classed as in vivo, mouse (NMRI female). The conditions noted are these: Mus musculus, sc, read-out: ED50, mg/kg, s.c. (dose rendering 50% of the mice incapable of entering the top of the net-ladder). How it is done: When mice are placed in a new area, they explore the whole available territory. Minor and major tranquillizers inhibit the exploratory activity. The sedative effect of drugs is evaluated by the inability of mice to ascend a netladder. The process of climbing is very complex and consists of psychical and taxic (motor performance) components. For the experiments a transparent cage (36×27×23 cm) and a net-ladder (35×6 cm) standing with an inclination of 45° was used. (P. Kneip. Arch. Int. Pharmacodyn. 76, 238 (1960); F. Sandberg, Arzneimittelforsch. 4, 203 (1959)).
The test compound is administered s.c. (10 ml/kg) to 6 NMRI female mice per dose. The mice are marked with a number code from 1 to 6, in order to recognize each individual mouse. In 25 minutes, 55 minutes, 1 h 55 minutes and 3 h 55 minutes time after the administration the mice are placed in the above-mentioned cage for 10 minutes. The number of mice ascending the top of the net-ladder is noted. Other behavioural items are also noted. The ED50 (mg/kg) reported is the dose rendering 50% of the mice incapable of entering the top of the net-ladder 0.5 h after the administration.

In test [7] the test system is mouse-killing behaviour of rats. In words: Spontaneous mouse-killing (muricide) by rats. The conditions noted are these: Rattus norvegicus, sc. The class given is in vivo, rat (male hooded Long-Evans). An excerpt: For the purpose of detecting new psychotropic substances with antiaggressive properties, pharmacologist have used several different models. […] This form of aggressive behaviour which is considered to be of predatory nature, is physiologically and topographically different from other forms of aggression (M. O'Boyle, Psychol. Bull. 81, 261 (1974)). Mousekilling is a spontaneous behaviour in some rat strains e.g. male hooded Long-Evans rats. Male hooded Long-Evans rats placed in individual cages were used. By testing a number of rats, a colony of rats was obtained that killed a mouse whenever introduced into the rats' cage, by biting the mouse through the cervical spinal cord. Each rat was tested for mouse-killing behaviour (killing a mouse within 5 minutes) prior to each experiment, thus serving as its own positive control. For each dose level 6 positive rats were selected and the test substance was administered by subcutaneous injection. Doses were selected to form a dose-response curve and the mean effective dose (ED50, mg/kg) was calculated by means of linear regression. The rats were tested at 1, and 2 hours after being injected subcutaneously.

Test [8] relates to guinea pig papillary muscle. The conditions noted are these: cited from earlier work.
Test [9] has as its system central 5HT receptors. The conditions noted are these: established antidepressant drugs; in words; cited from earlier work.
The mark [10] stands for this setting: 1.0 hour after drug administration.
[11] abbreviates: read-out: ED50, mg/kg, s.c., 2 hrs after injection.
[12] abbreviates: 1 hr after injection, read-out: ED50, mg/kg, s.c., 1 hr.

Like-named read-outs stand apart in the source and are kept apart here.

With `O=C(CCCN1CCN(c2ccccn2)CC1)c1ccc(F)cc1` [Azaperone], in test [1] (pre-treatment dose 1.0 mg/kg), the “Inhibition, % (gastric ulcers)” value is recorded as 0%. In addition, in test [2], the “stabilization of social parameters” value was “did not improve any social parameter” and the effect on aggression entry is recorded as “blocked aggression by an unspecific mechanism of sedation”. In addition, the “protecting capacity against the induced stress” value in test [3] is reported as “less effective”. The “Relative weight of thymus, ×100” value in test [3] (pre-treatment dose 1.0 mg/kg) turned out to be 48.
In the case of `CNC(=O)N1CCN(CCCC(c2ccc(F)cc2)c2ccc(F)cc2)CC1` [I, N'-Methyl-4-[4,4-(di-p-fluorophenyl)butyl]-1-piperazinecarboxamide], the ED50 in test [4] (setting [10]) was 4.8 mg/kg; in test [5] it was 0.5 mg/kg; in test [6] (0.5 h after administration), 1.5 mg/kg; in [7] (setting [11]) it was 0.7 mg/kg; in test [7] (setting [12]), 0.5 mg/kg.
On to `CNC(=S)N1CCN(CCCC(c2ccc(F)cc2)c2ccc(F)cc2)CC1` [IV, N'-Methyl-4-[4,4-(di-p-fluorophenyl)butyl]-1-piperazinecarbothioamide], for which the ED50 in [4] (setting [10]) was found to be 2 mg/kg; in test [5] it was 1.4 mg/kg; in test [6] (0.5 h after administration), 5.1 mg/kg; in test [7] (setting [11]) it was 0.1 mg/kg; in test [7] (setting [12]), 0.1 mg/kg.
For the compound `CCCCc1oc2ccccc2c1C(=O)c1cc(I)c(OCCN(CC)CC)c(I)c1` [Amiodarone], the “change of the effective refractory period” value (“change” below) in test [8] (10^-5 M) is 35 ms.
Turning to `CN(C)CCCN1c2ccccc2Sc2ccc(Cl)cc21` [Chlorpromazine, reference compound], the ED50 in test [4] (1 h) came out at 1.4 mg/kg; in test [6] (0.5 h), 2 mg/kg.
Consider `CN(C)CCC=C1c2ccccc2CCc2ccccc21` [Amitriptyline, reference compound], for which the ED50 in test [4] (setting [10]) was 5 mg/kg; in [7] (setting [11]), 6.4 mg/kg; in test [7] (setting [12]), more than 10 mg/kg. The “blockade of central 5HT receptors” value in test [9] is on record as “potent blockers”.
For the compound `C=C[C@H]1C[N@@]2CC[C@H]1C[C@@H]2[C@@H](O)c1ccnc2ccc(OC)cc12` [Quinidine], in test [8] (10^-6 M), the “change” value is 14 ms.
`CN1CC[C@]23c4c5ccc(O)c4O[C@H]2[C@@H](O)C=C[C@H]3[C@H]1C5` [Morphine]: the “Inhibition, % (gastric ulcers)” value in test [1] (pre-treatment dose 2.0 mg/kg) was 67%.
As to `CNC(=O)N1C[C@H](C)N(CCCC(c2ccc(F)cc2)c2ccc(F)cc2)C[C@H]1C` (relative stereo) [III, trans-2,5-Dimethyl-N'-methyl-4-[4,4-(di-p-fluorophenyl)butyl]-1-piperazinecarboxamide], the ED50 in [4] (setting [10]) turned out to be 2.6 mg/kg; in test [5], 1 mg/kg; in [6] (0.5 h after administration), 1 mg/kg; in test [7] (setting [11]), 2.9 mg/kg; in [7] (setting [12]), 1.9 mg/kg.
For `CC(=O)c1ccc2c(c1)N(CCCN(C)C)c1ccccc1S2` [Acepromazine], in [2], the “stabilization of social parameters” value is “did not improve any social parameter” and the effect on aggression result is given as “blocked aggression by an unspecific mechanism of sedation”.
For the compound `CN1CCN2c3ccccc3Cc3ccccc3C2C1` (stereo not drawn) [Mianserin], the “blockade of central 5HT receptors” value in [9] is given as “potent blockers”.
For `O=C(CCCN1CCC(O)(c2ccc(Cl)cc2)CC1)c1ccc(F)cc1` [Haloperidol, reference compound], the ED50 in test [6] (0.5 h) was determined as 1.3 mg/kg.
For `CCN(CC)CC(=O)Nc1c(C)cccc1C` [Lidocain], the “change” value in test [8] (10^-7 M) is given as 20 ms.
Consider `CC(C)NCC(O)COc1cccc2ccccc12` (stereo not drawn) [Propranolol], for which the “protecting capacity against the induced stress” value in test [3] was “less effective”. Further, the “Relative weight of thymus, ×100” value in test [3] (pre-treatment dose 10.0 mg/kg) is on record as 48.
